What was measured:
[1] = PDMS sheets cleaned by Soxhlet with ethyl acetate; batch shaking method with a mixture of all chemicals at several PDMS-mass to water-volume ratios and spiked levels; vials shaken on an orbital shaker at room temperature in the dark, sampled at two equilibration times; PDMS extracts and water quantified by LC-HRMS (Orbitrap); D from the slope of C_PDMS on C_w or their ratio; value is the mean over that pH's experiments (individual experiments in the SI's concentrations table), sd is the table's stdev; details: PDMS (polydimethylsiloxane silicone sheet), phosphate buffer at three target pH values (the paper's methods)
[2] = neutral chemical: log K is the mean of log D over all measurements at the three pH values (D shown independent of pH, paired t-test); sd is the table's stddev. PDMS sheets cleaned by Soxhlet with ethyl acetate; batch shaking method with a mixture of all chemicals at several PDMS-mass to water-volume ratios and spiked levels; vials shaken on an orbital shaker at room temperature in the dark, sampled at two equilibration times; PDMS extracts and water quantified by LC-HRMS (Orbitrap); D from the slope of C_PDMS on C_w or their ratio; details: PDMS (polydimethylsiloxane silicone sheet); phosphate buffer at three target pH values (the paper's methods)
[3] = monoprotic acid or base: log K of the neutral species extrapolated from the linear regression of D on the neutral fraction (from pKa and pH; the paper's eq. for monoprotic IOCs), the slope giving K of the neutral species; replicates column holds the table's 95% confidence limits. PDMS sheets cleaned by Soxhlet with ethyl acetate; batch shaking method with a mixture of all chemicals at several PDMS-mass to water-volume ratios and spiked levels; vials shaken on an orbital shaker at room temperature in the dark, sampled at two equilibration times; PDMS extracts and water quantified by LC-HRMS (Orbitrap); D from the slope of C_PDMS on C_w or their ratio; details: PDMS (polydimethylsiloxane silicone sheet); phosphate buffer at three target pH values (the paper's methods)

log D PDMS/w (apparent distribution ratio at the stated pH) ([1]; pH 3) | log D PDMS/w (apparent distribution ratio at the stated pH) ([1]; pH 7.4) | log K PDMS/w (neutral species) [2] | log D PDMS/w (apparent distribution ratio at the stated pH) ([1]; pH 11.5) | log K PDMS/w (neutral species) [3] | Structure (SMILES)
1.25 log units; D and K as the pape | -0.5267 log units; D and K as the pape | 0.9169 log units; D and K as the pape |  |  | COC(=O)C(c1ccccc1Cl)N1CCc2sccc2C1 (centres unmarked)
2.64 log units; D and K as the pape | 2.691 log units; D and K as the pape | 2.638 log units; D and K as the pape | 2.582 log units; D and K as the pape |  | CC(C)(C)NC(=O)[C@H]1CC[C@H]2[C@@H]3CC[C@H]4NC(=O)C=C[C@]4(C)[C@H]3CC[C@]12C
1.406 log units; D and K as the pape | 1.371 log units; D and K as the pape | 1.409 log units; D and K as the pape | 1.462 log units; D and K as the pape |  | CN(C)C(=O)Nc1ccc(Cl)c(Cl)c1
2.588 log units; D and K as the pape | 2.511 log units; D and K as the pape | 2.562 log units; D and K as the pape | 2.589 log units; D and K as the pape |  | O=P(c1ccccc1)(c1ccccc1)c1ccccc1
2.742 log units; D and K as the pape | 2.767 log units; D and K as the pape | 2.753 log units; D and K as the pape | 2.749 log units; D and K as the pape |  | CCCCCCCCCCCC(=O)N(CCO)CCO
-0.2614 log units; D and K as the pape | -0.1813 log units; D and K as the pape | -0.2009 log units; D and K as the pape | -0.1629 log units; D and K as the pape |  | Cc1c(C=O)c(=O)n(-c2ccccc2)n1C
0.372 log units; D and K as the pape | 0.424 log units; D and K as the pape | 0.442 log units; D and K as the pape | 0.53 log units; D and K as the pape |  | COCCOCCOCCOCCOC
4.526 log units; D and K as the pape | 4.273 log units; D and K as the pape | 4.415 log units; D and K as the pape | 4.425 log units; D and K as the pape |  | CC(C)OC(=O)C(C)(C)Oc1ccc(C(=O)c2ccc(Cl)cc2)cc1
2.047 log units; D and K as the pape | 1.994 log units; D and K as the pape | 2.022 log units; D and K as the pape | 2.025 log units; D and K as the pape |  | CC(C)(C#N)c1cc(Cn2cncn2)cc(C(C)(C)C#N)c1
0.5417 log units; D and K as the pape | 1.69 log units; D and K as the pape |  | 1.693 log units; D and K as the pape | 1.855 log units; D and K as the pape | c1ccc2[nH]c(-c3cscn3)nc2c1
2.835 log units; D and K as the pape | 2.884 log units; D and K as the pape |  |  | 2.899 log units; D and K as the pape | O=C1Nc2ccc(Cl)cc2C(C#CC2CC2)(C(F)(F)F)O1 (centres unmarked)
2.092 log units; D and K as the pape | 3.079 log units; D and K as the pape |  | 3.04 log units; D and K as the pape | 3.105 log units; D and K as the pape | c1ccc2sc(NC3CCCCC3)nc2c1
1.101 log units; D and K as the pape | 1.143 log units; D and K as the pape |  |  | 0.9455 log units; D and K as the pape | CCOC(=O)CC(O)(CC(=O)OCC)C(=O)OCC
3.077 log units; D and K as the pape | 2.994 log units; D and K as the pape |  | 2.967 log units; D and K as the pape | 3.121 log units; D and K as the pape | CCOC(=O)NCCOc1ccc(Oc2ccccc2)cc1
0.4988 log units; D and K as the pape | 0.4322 log units; D and K as the pape |  | 0.4489 log units; D and K as the pape | 0.5546 log units; D and K as the pape | CCOC(=O)c1ccc(N)cc1
2.216 log units; D and K as the pape | 2.266 log units; D and K as the pape |  | 2.184 log units; D and K as the pape | 2.315 log units; D and K as the pape | CCOC(=O)c1ccc(N(C)C)cc1
0.7917 log units; D and K as the pape | 0.8008 log units; D and K as the pape |  | 0.8475 log units; D and K as the pape | 0.9136 log units; D and K as the pape | Cc1cc(=O)oc2cc(N)ccc12
-0.08 log units; D and K as the pape | -0.44 log units; D and K as the pape |  | -0.57 log units; D and K as the pape | 0.07041 log units; D and K as the pape | NC(=O)N1c2ccccc2C(O)C(O)c2ccccc21 (centres unmarked)

Structure (SMILES) | log D PDMS/w (apparent distribution ratio at the stated pH) ([1]; pH 3) | log D PDMS/w (apparent distribution ratio at the stated pH) ([1]; pH 7.4) | log K PDMS/w (neutral species) [2] | log D PDMS/w (apparent distribution ratio at the stated pH) ([1]; pH 11.5) | log K PDMS/w (neutral species) [3]
O=S(=O)(c1ccc(Cl)cc1)c1ccc(Cl)cc1 | 2.579 log units; D and K as the pape | 2.592 log units; D and K as the pape | 2.563 log units; D and K as the pape | 2.517 log units; D and K as the pape | 
CNC(=O)/C(=N/OC)c1ccccc1COc1cc(C)ccc1C | 2.432 log units; D and K as the pape | 2.361 log units; D and K as the pape | 2.396 log units; D and K as the pape | 2.397 log units; D and K as the pape | 
N#Cc1nn(-c2c(Cl)cc(C(F)(F)F)cc2Cl)c(N)c1C(F)(F)F | 1.946 log units; D and K as the pape | 1.927 log units; D and K as the pape | 1.919 log units; D and K as the pape | 1.883 log units; D and K as the pape | 
Clc1ccc2n[nH]nc2c1 | 0.7386 log units; D and K as the pape | 0.79 log units; D and K as the pape |  | 0.065 log units; D and K as the pape | 1.144 log units; D and K as the pape
Cc1ccc2[nH]nnc2c1 | 0.336 log units; D and K as the pape | 0.308 log units; D and K as the pape |  | -0.64 log units; D and K as the pape | 0.3619 log units; D and K as the pape
c1ccc2c(c1)[nH]c1cnccc12 | 1.471 log units; D and K as the pape | 2.208 log units; D and K as the pape |  | 2.227 log units; D and K as the pape | 2.353 log units; D and K as the pape
CSc1nc(NC2CC2)nc(NC(C)(C)C)n1 | 2.006 log units; D and K as the pape | 2.689 log units; D and K as the pape |  | 2.624 log units; D and K as the pape | 2.78 log units; D and K as the pape
Clc1ccccc1C(c1ccccc1)(c1ccccc1)n1ccnc1 | 2.324 log units; D and K as the pape | 4.388 log units; D and K as the pape |  | 4.335 log units; D and K as the pape | 4.471 log units; D and K as the pape
